Positions of bridges follow the written chain, without caps; N, C: chain ends. Non-standard residues stand in square brackets, D forms with d. Residues, ends and D or L forms follow the SMILES beside them. Trp(1-Me) = Cn1cc(C[C@H](N)C(=O)O)c2ccccc21; Sar = CNCC(=O)O
How the values were obtained:
[1] = tested on: classical complement pathway; experiment: In vitro haemolysis assay (inhibition of classical complement pathway); assay type: cell-based, human; details: human serum, sensitized sheep red blood cells; Table 3, given as upper bounds; read-out: IC50, inhibition of hemolysis
Procedure, shortened: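 Compound dilutions preincubated 15 min at room temperature with diluted human serum (titrated per batch for 70-90% maximal haemolysis), then antibody-sensitized sheep RBC (10^7/well) added for 30 min at 37 °C in Tris/casein buffer, pH 7.4. Stopped with EDTA; haemolysis read at 405 nm; IC50 by 4PL fit.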

[2] = Solubility test at 10 mg/mL (visual inspection and light scattering); assay type: physicochemical; details: for Solubility, Condition 1: Acetate pH 4; for Solubility, Condition 2: Acetate pH 5; for Solubility, Condition 3: Phosphate pH 6; for Solubility, Condition 4: Phosphate pH 7; for Solubility, Condition 5: Phosphate pH 7.5

CC[C@H](C)[C@@H]1NC(=O)[C@@H](NC(=O)CN(C)C(=O)[C@H](CCC(=O)O)NC(=O)[C@H](CO)NC(C)=O)CSSC[C@@H](C(=O)N(C)CC(=O)N[C@@H](CCC(=O)O)C(=O)N[C@@H](C)C(N)=O)NC(=O)[C@H](CCCNC(=N)N)NC(=O)[C@H](Cc2c[nH]cn2)NC(=O)[C@H](CCC(=O)O)NC(=O)CNC(=O)[C@H](Cc2c[nH]c3ccccc23)NC(=O)[C@H](CC(=O)O)NC(=O)[C@H](CCC(N)=O)NC(=O)[C@H](Cc2cn(C)c3ccccc23)NC1=O [Compound 81] (Ac-SE[Sar]CI[Trp(1-Me)]QDWGEHRC[Sar]EA-NH2; disulfide 4-14)
IC50 [1]: < 100 nM
Solubility, Condition 1 [2]: − (“−” denotes lack of solubility at the given condition, as UV absorbance at 340 nm exceeds 0.1 AU and/or it is visibly turbid or contains particles)
Solubility, Condition 2 [2]: − (“−” denotes lack of solubility at the given condition, as UV absorbance at 340 nm exceeds 0.1 AU and/or it is visibly turbid or contains particles)
Solubility, Condition 3 [2]: + (“+” denotes solubility at the given condition, as determined by UV absorbance being less than 0.1 AU at 340 nm and the sample being clear when manually inspected)
Solubility, Condition 4 [2]: + (“+” denotes solubility at the given condition, as determined by UV absorbance being less than 0.1 AU at 340 nm and the sample being clear when manually inspected)
Solubility, Condition 5 [2]: + (“+” denotes solubility at the given condition, as determined by UV absorbance being less than 0.1 AU at 340 nm and the sample being clear when manually inspected)

CC[C@H](C)[C@H](NC(C)=O)C(=O)N[C@H]1CSSC[C@@H](C(=O)N[C@@H](CCC(=O)O)C(=O)NCC(=O)N[C@@H](CCC(=O)O)C(N)=O)NC(=O)[C@H](CCCNC(=N)N)NC(=O)[C@H](Cc2c[nH]cn2)NC(=O)[C@H](CCC(=O)O)NC(=O)CNC(=O)[C@H](Cc2c[nH]c3ccccc23)NC(=O)[C@H](CC(=O)O)NC(=O)[C@H](CCC(N)=O)NC(=O)[C@H](Cc2c[nH]c3ccccc23)NC(=O)[C@H]([C@@H](C)CC)NC1=O [Compound 27] (Ac-ICIWQDWGEHRCEGE-NH2; disulfide 2-12)
IC50 [1]: < 100 nM
Solubility, Condition 1 [2]: − (“−” denotes lack of solubility at the given condition, as UV absorbance at 340 nm exceeds 0.1 AU and/or it is visibly turbid or contains particles)
Solubility, Condition 2 [2]: − (“−” denotes lack of solubility at the given condition, as UV absorbance at 340 nm exceeds 0.1 AU and/or it is visibly turbid or contains particles)
Solubility, Condition 3 [2]: − (“−” denotes lack of solubility at the given condition, as UV absorbance at 340 nm exceeds 0.1 AU and/or it is visibly turbid or contains particles)
Solubility, Condition 4 [2]: + (“+” denotes solubility at the given condition, as determined by UV absorbance being less than 0.1 AU at 340 nm and the sample being clear when manually inspected)
Solubility, Condition 5 [2]: + (“+” denotes solubility at the given condition, as determined by UV absorbance being less than 0.1 AU at 340 nm and the sample being clear when manually inspected)

CC[C@H](C)[C@@H]1NC(=O)[C@@H](NC(=O)[C@H](Cc2ccccc2)NC(=O)[C@H](C)NC(=O)[C@H](CO)NC(=O)CNC(=O)[C@H](CCC(=O)O)NC(C)=O)CSSC[C@@H](C(=O)N(C)CC(=O)N[C@@H](CCC(=O)O)C(N)=O)NC(=O)[C@H](CCCNC(=N)N)NC(=O)[C@H](Cc2c[nH]cn2)NC(=O)[C@H](CCC(=O)O)NC(=O)CNC(=O)[C@H](Cc2c[nH]c3ccccc23)NC(=O)[C@H](CC(=O)O)NC(=O)[C@H](CCC(N)=O)NC(=O)[C@H](Cc2c[nH]c3ccccc23)NC1=O [Compound 45] (Ac-EGSAFCIWQDWGEHRC[Sar]E-NH2; disulfide 6-16)
IC50 [1]: < 100 nM
Solubility, Condition 1 [2]: − (“−” denotes lack of solubility at the given condition, as UV absorbance at 340 nm exceeds 0.1 AU and/or it is visibly turbid or contains particles)
Solubility, Condition 2 [2]: + (“+” denotes solubility at the given condition, as determined by UV absorbance being less than 0.1 AU at 340 nm and the sample being clear when manually inspected)
Solubility, Condition 3 [2]: + (“+” denotes solubility at the given condition, as determined by UV absorbance being less than 0.1 AU at 340 nm and the sample being clear when manually inspected)
Solubility, Condition 4 [2]: + (“+” denotes solubility at the given condition, as determined by UV absorbance being less than 0.1 AU at 340 nm and the sample being clear when manually inspected)
Solubility, Condition 5 [2]: + (“+” denotes solubility at the given condition, as determined by UV absorbance being less than 0.1 AU at 340 nm and the sample being clear when manually inspected)

CC[C@H](C)[C@@H]1NC(=O)[C@@H](NC(=O)[C@H](Cc2ccccc2)NC(C)=O)CSSC[C@@H](C(=O)N[C@H](C(=O)NCC(=O)N[C@@H](C)C(=O)N[C@@H](CCC(=O)O)C(=O)N[C@@H](CO)C(N)=O)[C@@H](C)O)NC(=O)[C@H](CCCNC(=N)N)NC(=O)[C@H](Cc2c[nH]cn2)NC(=O)[C@H](CCC(=O)O)NC(=O)CN(C)C(=O)[C@H](Cc2c[nH]c3ccccc23)NC(=O)[C@H](CC(=O)O)NC(=O)[C@H](CCC(N)=O)NC(=O)[C@H](Cc2cn(C)c3ccccc23)NC1=O [Compound 72, Ac-FC(1)I[1-Me-Trp]QDW[Sar]EHRC(1)TGAES-NH2] (Ac-FCI[Trp(1-Me)]QDW[Sar]EHRCTGAES-NH2; disulfide 2-12)
IC50 [1]: < 100 nM
Solubility, Condition 1 [2]: − (“−” denotes lack of solubility at the given condition, as UV absorbance at 340 nm exceeds 0.1 AU and/or it is visibly turbid or contains particles)
Solubility, Condition 2 [2]: − (“−” denotes lack of solubility at the given condition, as UV absorbance at 340 nm exceeds 0.1 AU and/or it is visibly turbid or contains particles)
Solubility, Condition 3 [2]: + (“+” denotes solubility at the given condition, as determined by UV absorbance being less than 0.1 AU at 340 nm and the sample being clear when manually inspected)
Solubility, Condition 4 [2]: + (“+” denotes solubility at the given condition, as determined by UV absorbance being less than 0.1 AU at 340 nm and the sample being clear when manually inspected)
Solubility, Condition 5 [2]: + (“+” denotes solubility at the given condition, as determined by UV absorbance being less than 0.1 AU at 340 nm and the sample being clear when manually inspected)

Reference: patent US11965039B2, “Compstatin analogues and their medical uses” (priority 2018, dated 2024)
